How the values were obtained:
[1] = tested on: rat perifused pancreatic islets; test: KATP opening effects through insulin secretion in rat perifused pancreatic islets; format: cell-based; conditions: 11 mM glucose
Protocol: Determination of the KATP Opening Effects of Compounds Through Insulin Secretion in Rat Perifused Pancreatic Islets
The animals were maintained on a 12 h light-dark cycle (lights on 06.00-18.00 h) with free access to standard rodent diet (B&K Universal Ltd standard rat and mouse diet (BK 001P), Beekay Feeds, B&K Universal Ltd, Hull, East Riding of Yorkshire) and tap water. The rats were conditioned to this environment for at least one week before experimentation.
Experimental procedures: After the rats were sacrificed, the branch of the bile duct leading to the liver and the duodenal end of the duct in the pancreas were clamped and the pancreas distended by injection of ice-cold 0.9 mg/ml collagenase solution into the bile duct. […] Following incubation, 10 ml of cold buffer was added and the suspension shaken vigorously by hand for 1 min. The islets were allowed to settle for 5 min on ice and washed three times using ice-cold buffer. Well-formed and good-sized islets from three rats were hand-picked (under a low power microscope) and pooled and a final selection of islet transferred to the perifusion apparatus.
Two experiments were performed in parallel in two identical, independent sets of perifusion apparatus each consisting of sufficient number of chambers. Each chamber was loaded with 20 hand-picked islets. Islets were perifused for an initial 30 min period in media containing 4 mM glucose. Perifusate was then collected at 2 min intervals for the remainder of the experiment. […] Perifusate fractions were stored at −75° C. until required for insulin assay. Insulin content of fractions were assayed using a 96-well ELISA assay (Mercodia). Initial insulin assays were performed in triplicate on three pooled fractions from each chamber.
Data were initially expressed as a simple mean of the three experiments for insulin secretion (pg/islet/min) and multiple t-tests (against the corresponding vehicle time period) used to determine potential significant effects of treatments. Alternatively, data were also calculated as a % vehicle effect for each experimental day. This latter approach was deemed to be the more powerful analysis as it corrected for the day to day variation in insulin release from the islets.

rat SUR2A = rat SUR2A (Rattus norvegicus, UniProt Q63563); test: In vitro binding affinity to rodent KATP channels: SUR2A ([3H]P1075 / [3H]glibenclamide displacement, COS cell membranes)
In short: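 COS-cell membranes transiently expressing rat SUR2A incubated 1 h at room temperature in 50 mM Tris pH 7.4, ~0.7 mM free Mg2+, with 3 nM [3H]P1075 (wild type) or [3H]glibenclamide (SUR2AY1205S); filtration read-out. Ki from IC50, reported as pKi; 9-15 concentrations per curve.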

[2] = molecular target: human cannabinoid CB2 receptor (Homo sapiens, UniProt P34972); test: biochemical; format: binding
Chain of human cannabinoid CB2 receptor (P34972 whole entry): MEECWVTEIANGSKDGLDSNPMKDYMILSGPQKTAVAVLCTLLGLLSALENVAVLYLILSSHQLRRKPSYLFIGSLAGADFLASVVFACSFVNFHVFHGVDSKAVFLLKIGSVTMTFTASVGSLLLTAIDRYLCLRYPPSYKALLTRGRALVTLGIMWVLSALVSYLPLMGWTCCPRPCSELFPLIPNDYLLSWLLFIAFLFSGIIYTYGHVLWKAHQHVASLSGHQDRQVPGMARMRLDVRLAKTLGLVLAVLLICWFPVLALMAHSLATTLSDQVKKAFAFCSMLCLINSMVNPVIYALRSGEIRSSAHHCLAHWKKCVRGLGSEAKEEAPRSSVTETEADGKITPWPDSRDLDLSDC
Protocol: 3. In Vitro Binding Affinity of the Test Compounds to CB2 Receptors
After incubation of a freshly prepared cell membrane preparation with the [^3H]-ligand, with or without the addition of the compounds described herein, separation of bound and free ligand is performed by filtration over glass-fiber filters. Radioactivity on the filter is measured by liquid scintillation counting.

Chain of rat SUR2A (Q63563 whole entry): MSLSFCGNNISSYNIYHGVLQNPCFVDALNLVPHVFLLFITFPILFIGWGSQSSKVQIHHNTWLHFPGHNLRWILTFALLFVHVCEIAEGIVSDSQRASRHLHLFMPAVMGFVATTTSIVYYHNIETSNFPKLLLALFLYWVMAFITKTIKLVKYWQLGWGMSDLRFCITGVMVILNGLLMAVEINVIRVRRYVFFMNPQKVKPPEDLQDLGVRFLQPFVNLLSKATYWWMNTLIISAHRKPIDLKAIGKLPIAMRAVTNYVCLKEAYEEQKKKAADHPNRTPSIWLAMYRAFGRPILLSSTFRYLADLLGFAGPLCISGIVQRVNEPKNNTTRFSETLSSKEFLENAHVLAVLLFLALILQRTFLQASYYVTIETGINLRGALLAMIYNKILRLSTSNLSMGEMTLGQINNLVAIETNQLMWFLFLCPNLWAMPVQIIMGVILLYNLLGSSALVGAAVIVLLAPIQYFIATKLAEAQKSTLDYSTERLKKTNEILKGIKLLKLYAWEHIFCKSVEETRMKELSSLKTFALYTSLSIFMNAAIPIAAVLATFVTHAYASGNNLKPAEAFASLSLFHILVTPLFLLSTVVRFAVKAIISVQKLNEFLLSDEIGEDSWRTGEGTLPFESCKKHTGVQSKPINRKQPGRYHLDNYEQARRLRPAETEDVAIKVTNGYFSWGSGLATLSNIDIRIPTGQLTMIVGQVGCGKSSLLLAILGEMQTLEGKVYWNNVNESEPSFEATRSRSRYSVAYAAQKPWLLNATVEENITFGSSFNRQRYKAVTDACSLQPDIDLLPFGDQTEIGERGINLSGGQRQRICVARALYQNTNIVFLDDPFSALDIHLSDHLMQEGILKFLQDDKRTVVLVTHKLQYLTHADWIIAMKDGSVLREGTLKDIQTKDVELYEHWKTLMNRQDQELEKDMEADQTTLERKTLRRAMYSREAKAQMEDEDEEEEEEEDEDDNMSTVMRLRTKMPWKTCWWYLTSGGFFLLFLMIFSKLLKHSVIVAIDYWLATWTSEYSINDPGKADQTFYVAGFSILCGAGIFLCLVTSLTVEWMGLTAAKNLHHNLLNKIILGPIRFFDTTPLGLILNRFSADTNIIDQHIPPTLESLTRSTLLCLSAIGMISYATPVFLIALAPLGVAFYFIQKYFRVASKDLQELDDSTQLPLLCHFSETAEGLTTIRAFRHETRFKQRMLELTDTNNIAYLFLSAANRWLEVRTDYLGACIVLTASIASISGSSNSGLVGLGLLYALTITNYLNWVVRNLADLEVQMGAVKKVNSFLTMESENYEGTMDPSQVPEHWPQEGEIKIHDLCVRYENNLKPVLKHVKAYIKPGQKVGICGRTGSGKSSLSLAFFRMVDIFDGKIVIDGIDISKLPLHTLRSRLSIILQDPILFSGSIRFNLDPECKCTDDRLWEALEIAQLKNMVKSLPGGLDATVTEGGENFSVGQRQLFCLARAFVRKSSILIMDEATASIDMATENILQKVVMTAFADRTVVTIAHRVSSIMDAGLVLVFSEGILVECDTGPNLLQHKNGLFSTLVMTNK

For `CCc1c(C(=O)NN2CCCCC2)nc(-c2ccccc2Cl)n1-c1ccc(Cl)cc1` [1-(4-Chloro-phenyl)-2-(2-chloro-phenyl)-5-ethyl-1H-imidazole-4-carboxylic acid piperidin-1-ylamide, reference compound], the “% Inhibition 0-30 (insulin secretion)” value ([1]; 0-30 minutes) was 59%, the “% Inhibition 30-60 (insulin secretion)” value ([1]; 30-60 minutes) was 45% and the pKi (rat SUR2A) was 4.8. For the same compound, the Ki [2] was 1000 nM.
